Test results from ChEMBL document CHEMBL1201862, “PubChem BioAssay data set” (2004).
The source made the active and inactive calls.

Legend:
Streptococcus = assay: Group A Streptococcus viability loss, dose response, counter-screen for streptokinase expression inhibitor project, luminescence, BacTiterGlo (AID 1915); assay type: functional, organism-based;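 further: potency for reduction of bacterial viability or growth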
Streptokinase A = target: T1, Streptokinase A (Streptococcus pyogenes serotype M1, UniProt P10520); assay: S. pyogenes streptokinase expression inhibitors, potency, dose response, plasminogen activation absorbance, OD405 (AID 1914); assay type: functional, Streptococcus pyogenes M1 GAS;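 further: secreted streptokinase activity via plasminogen activation per viability signal from cell pellet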
T1 sequence (P10520 whole entry): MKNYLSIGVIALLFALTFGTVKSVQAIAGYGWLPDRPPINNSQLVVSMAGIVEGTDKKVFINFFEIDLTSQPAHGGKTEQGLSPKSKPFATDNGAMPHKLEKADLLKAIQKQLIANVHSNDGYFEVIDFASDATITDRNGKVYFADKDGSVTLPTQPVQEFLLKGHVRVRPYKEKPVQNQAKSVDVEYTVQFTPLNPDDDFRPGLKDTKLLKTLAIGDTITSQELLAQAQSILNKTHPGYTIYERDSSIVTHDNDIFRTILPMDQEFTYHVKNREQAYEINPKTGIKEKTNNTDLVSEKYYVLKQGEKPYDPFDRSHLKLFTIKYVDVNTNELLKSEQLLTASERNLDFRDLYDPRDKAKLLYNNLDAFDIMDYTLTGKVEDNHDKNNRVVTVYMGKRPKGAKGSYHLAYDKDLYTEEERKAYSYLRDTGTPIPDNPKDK

[1] = test system: Streptococcus sp. 'group A'; assay: growth inhibition of control SK(-) GAS strain, dose response, counter-screen for streptokinase expression inhibitor project, luminescence, kanamycin, BacTiterGlo, confirmation (AID 1900); assay type: functional, organism-based
[2] = Luminescence Cell-Based Dose Retest to Confirm Inhibitors of Cancer Stem Cells. [Related pubchem assays (depositor defined):AID2717, AID2721]; assay type: functional; conditions: Homo sapiens
[3] = target: T2, Rac GTPase-activating protein 1 (Homo sapiens, UniProt Q9H0H5); assay: MgcRacGAP GTPase-activating activity inhibitors, confirmation, biochemical, ADP Hunter fluorescence, primary and confirmatory (AID 624330); assay type: functional
T2 sequence (Q9H0H5 whole entry): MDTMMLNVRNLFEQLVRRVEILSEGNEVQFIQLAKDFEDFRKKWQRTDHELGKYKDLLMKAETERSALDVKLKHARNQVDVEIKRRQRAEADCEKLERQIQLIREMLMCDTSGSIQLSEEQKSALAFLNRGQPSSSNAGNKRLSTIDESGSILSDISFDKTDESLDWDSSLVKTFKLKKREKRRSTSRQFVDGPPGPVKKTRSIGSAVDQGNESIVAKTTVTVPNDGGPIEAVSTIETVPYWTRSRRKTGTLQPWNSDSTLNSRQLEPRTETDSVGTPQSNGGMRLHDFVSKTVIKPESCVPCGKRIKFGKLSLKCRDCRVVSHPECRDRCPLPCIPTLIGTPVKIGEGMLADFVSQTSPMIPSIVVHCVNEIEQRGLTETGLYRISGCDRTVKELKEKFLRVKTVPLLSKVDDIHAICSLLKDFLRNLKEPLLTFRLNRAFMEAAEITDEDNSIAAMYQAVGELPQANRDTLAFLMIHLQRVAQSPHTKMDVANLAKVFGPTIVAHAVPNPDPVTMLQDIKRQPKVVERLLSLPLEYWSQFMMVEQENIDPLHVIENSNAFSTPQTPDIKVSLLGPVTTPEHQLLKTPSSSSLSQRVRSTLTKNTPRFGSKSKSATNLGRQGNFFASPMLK

H4 = assay: Luminescence Cell-Based Dose Response HTS to Identify Activators of 5'UTR Stem-Loop Driven Prion Protein mRNA Translation in H4 Neuroglioblastoma Cells. [Related pubchem assays: 1829 (Project Summary), 1814 (Primary HTS)]; assay type: functional; conditions: Homo sapiens
Cytochrome P450 2C9 = Cytochrome P450 2C9 (Homo sapiens, UniProt P11712)
Cytochrome P450 3A4 = Cytochrome P450 3A4 (Homo sapiens, UniProt P08684);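 further: CYP3A4 tested as one member of a cytochrome P450 panel screen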
Cytochrome P450 1A2 = target: T3, Cytochrome P450 1A2 (Homo sapiens, UniProt P05177);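 further: PubChem cytochrome P450 panel assay, CYP1A2 panel member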
T3 sequence (P05177 whole entry): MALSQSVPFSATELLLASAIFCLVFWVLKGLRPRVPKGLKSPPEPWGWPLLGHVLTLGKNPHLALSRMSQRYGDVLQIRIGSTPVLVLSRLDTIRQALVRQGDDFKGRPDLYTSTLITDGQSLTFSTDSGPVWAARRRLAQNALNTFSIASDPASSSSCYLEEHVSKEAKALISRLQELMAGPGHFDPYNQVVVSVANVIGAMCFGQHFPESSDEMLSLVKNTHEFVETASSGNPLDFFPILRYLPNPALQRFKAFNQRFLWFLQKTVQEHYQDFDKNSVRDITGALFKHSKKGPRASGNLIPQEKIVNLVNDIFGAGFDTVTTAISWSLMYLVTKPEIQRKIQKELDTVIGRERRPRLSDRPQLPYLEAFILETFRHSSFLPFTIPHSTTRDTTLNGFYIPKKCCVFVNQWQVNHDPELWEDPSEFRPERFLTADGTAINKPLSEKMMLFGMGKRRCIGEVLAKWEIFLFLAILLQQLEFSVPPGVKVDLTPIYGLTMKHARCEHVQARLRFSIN

Cytochrome P450 2D6 = Cytochrome P450 2D6 (Homo sapiens, UniProt P10635);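 further: CYP2D6 member of a cytochrome P450 panel assay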
Cytochrome P450 2C19 = Cytochrome P450 2C19 (Homo sapiens, UniProt P33261); assay: Cytochrome panel assay with activity outcomes. Panel member name: p450-cyp2c19 Compounds with AC50 equal or less than 10 uM are considered active; assay type: functional; conditions: read-out: AC50
[4] = cytotoxicity toward NIH3T3 fibroblasts, dose response, counter-screen, cell-based, ATP luminescence, mouse fibroblasts (AID 2010); assay type: functional;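 further: cells exposed to compound for about 90 hours before reading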
[5] = inhibitors of intracellular T. cruzi replication, confirmation, NIH3T3 host cells, beta-gal luminescence (AID 2044); assay type: functional, cell-based;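 further: intracellular parasites grown in NIH/3T3 mouse fibroblasts as host cells; luminescent beta-galactosidase reporter signal from transgenic T. cruzi replicating inside host cells; inhibitors lower the luminescence signal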

Chain of Cytochrome P450 2C9 (P11712 whole entry): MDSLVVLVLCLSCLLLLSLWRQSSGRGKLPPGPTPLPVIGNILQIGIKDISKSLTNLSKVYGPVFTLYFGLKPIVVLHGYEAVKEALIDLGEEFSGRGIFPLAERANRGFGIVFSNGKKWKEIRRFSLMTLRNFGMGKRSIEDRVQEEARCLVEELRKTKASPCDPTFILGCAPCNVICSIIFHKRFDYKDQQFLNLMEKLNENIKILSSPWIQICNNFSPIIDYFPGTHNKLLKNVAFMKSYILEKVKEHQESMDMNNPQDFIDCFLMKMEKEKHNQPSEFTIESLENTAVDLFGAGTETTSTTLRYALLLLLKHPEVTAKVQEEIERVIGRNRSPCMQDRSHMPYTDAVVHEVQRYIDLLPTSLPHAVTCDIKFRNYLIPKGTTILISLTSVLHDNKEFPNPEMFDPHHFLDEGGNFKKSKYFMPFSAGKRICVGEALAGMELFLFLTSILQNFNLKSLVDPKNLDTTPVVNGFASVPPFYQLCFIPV
Chain of Cytochrome P450 2C19 (P33261 whole entry): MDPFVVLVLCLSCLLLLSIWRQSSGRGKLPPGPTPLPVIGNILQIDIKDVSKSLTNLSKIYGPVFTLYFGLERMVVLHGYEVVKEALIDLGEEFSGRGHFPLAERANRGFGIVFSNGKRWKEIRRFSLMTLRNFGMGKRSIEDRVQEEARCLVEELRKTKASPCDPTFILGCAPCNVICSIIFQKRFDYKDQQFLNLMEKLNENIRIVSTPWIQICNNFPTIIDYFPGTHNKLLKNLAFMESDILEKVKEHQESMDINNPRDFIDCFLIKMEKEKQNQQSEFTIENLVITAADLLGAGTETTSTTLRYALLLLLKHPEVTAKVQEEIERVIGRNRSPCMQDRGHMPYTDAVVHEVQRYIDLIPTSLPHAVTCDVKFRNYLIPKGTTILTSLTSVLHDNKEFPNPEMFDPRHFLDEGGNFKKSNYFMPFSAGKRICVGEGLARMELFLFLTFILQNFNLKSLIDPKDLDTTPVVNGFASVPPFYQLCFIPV
Chain of Cytochrome P450 3A4 (P08684 whole entry): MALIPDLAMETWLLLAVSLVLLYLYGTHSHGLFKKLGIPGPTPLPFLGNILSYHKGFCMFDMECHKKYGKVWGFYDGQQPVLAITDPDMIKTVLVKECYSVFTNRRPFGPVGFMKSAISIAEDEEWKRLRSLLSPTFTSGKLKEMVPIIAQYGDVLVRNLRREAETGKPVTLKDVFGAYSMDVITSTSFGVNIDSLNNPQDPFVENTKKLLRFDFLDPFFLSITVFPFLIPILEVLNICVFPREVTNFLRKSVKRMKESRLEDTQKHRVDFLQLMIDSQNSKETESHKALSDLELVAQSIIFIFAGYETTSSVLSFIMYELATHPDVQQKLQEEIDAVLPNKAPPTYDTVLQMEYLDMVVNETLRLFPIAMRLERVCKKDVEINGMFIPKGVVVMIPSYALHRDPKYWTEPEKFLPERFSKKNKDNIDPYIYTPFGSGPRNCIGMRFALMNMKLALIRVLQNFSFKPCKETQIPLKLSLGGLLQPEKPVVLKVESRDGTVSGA
Chain of Cytochrome P450 2D6 (P10635 whole entry): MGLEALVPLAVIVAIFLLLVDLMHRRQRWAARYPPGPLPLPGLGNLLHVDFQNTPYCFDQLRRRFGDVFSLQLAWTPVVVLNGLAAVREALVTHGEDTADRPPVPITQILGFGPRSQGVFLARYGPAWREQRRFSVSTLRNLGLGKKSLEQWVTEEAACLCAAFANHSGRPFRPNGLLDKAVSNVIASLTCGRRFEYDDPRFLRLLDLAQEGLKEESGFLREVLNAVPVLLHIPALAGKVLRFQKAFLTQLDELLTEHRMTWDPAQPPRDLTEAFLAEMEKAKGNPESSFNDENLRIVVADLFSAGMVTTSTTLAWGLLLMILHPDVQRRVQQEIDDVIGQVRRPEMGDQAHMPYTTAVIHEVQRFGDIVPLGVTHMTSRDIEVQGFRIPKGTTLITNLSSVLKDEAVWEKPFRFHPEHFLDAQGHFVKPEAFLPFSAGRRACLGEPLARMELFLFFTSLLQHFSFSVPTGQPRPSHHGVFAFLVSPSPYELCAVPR

## CCc1ccc(/C=C/c2c([N+](=O)[O-])c(=O)n(C)c(=O)n2C)cc1
Streptococcus
  EC50: 18 µM (active)
Streptokinase A
  EC50: > 150 µM (not active)
[1]
  EC50: 4.55 µM (active)

## COc1ccc(-c2sc3ccccc3c2C#CC2(O)CCCCC2)cc1
[2]
  AC50: 3.73 µM (active)
Streptococcus
  EC50: 8.22 µM (active)
Streptokinase A
  EC50: 6.81 µM (active)
[1]
  EC50: 3.52 µM (active)

## O=C(c1cc(-c2cccs2)nc2ccccc12)N1CCN(c2ccccc2O)CC1
Streptococcus
  EC50: 54.8 µM (active)
Streptokinase A
  EC50: 144 µM (active)
[1]
  EC50: 21.8 µM (active)

## CN1CCN(NC(=O)Nc2cc(Cl)cc(Cl)c2)CC1
Streptococcus
  EC50: > 150 µM (not active)
Streptokinase A
  EC50: 21.7 µM (active)
[1]
  EC50: 6.77 µM (active)

## CCn1c2ccccc2c2cc(NS(=O)(=O)c3ccc(C)cc3)ccc21
[2]
  AC50: 2.87 µM (active)

## CCOC(=O)c1c(N)sc2c(OC)c(Br)ccc12
[3]
  IC50: 203 µM (active)

## COc1ccccc1C(=O)COC(=O)c1ccc(N(C)C)cc1
H4
  EC50: 1.79 µM (active)

## Cc1ccc(-n2nnnc2SCC(=O)c2cc(C)n(-c3cc(C)on3)c2C)c(C)c1
Streptococcus
  EC50: > 150 µM (not active)
Streptokinase A
  EC50: 89.2 µM (active)
[1]
  EC50: 25.6 µM (active)

## CCN(CC)c1ccc(S(=O)(=O)Nc2cc(Cl)ccc2Cl)cc1NC(=S)NC(=O)C1CCCC1
[2]
  AC50: 1.65 µM (active)

## CC(C)N1CCN(C(=O)c2cccc(Cl)c2)CC1
[3]
  IC50: 295 µM (active)

## Oc1ccc2c(ccc3[nH]cnc32)c1
[3]
  IC50: 43.9 µM (active)

## CC(=O)N1CCC2(CCCN(C(c3ccccc3)c3ccccc3)C2)CC1
Cytochrome P450 2C9
  AC50: 31.6 µM (inconclusive)
Cytochrome P450 3A4
  AC50: 12.6 µM (inconclusive)

## O=C(Nc1ccc2c(c1)nc1n2CCN(C2CCCCC2)C1)NC1CCCCC1
Cytochrome P450 3A4
  AC50: 15.8 µM (inconclusive)

## Oc1ccc(Br)cc1CNn1cnnc1
Cytochrome P450 2C9
  AC50: 17.8 µM (inconclusive)
Cytochrome P450 1A2
  AC50: 14.1 µM (inconclusive)
Cytochrome P450 3A4
  AC50: 35.5 µM (inconclusive)

## CCn1c(C)nc2cc(C(=O)NNC(=S)NC(=O)c3ccc(OC)cc3)ccc21
Streptococcus
  EC50: 95.3 µM (active)
Streptokinase A
  EC50: > 150 µM (not active)
[1]
  EC50: 9.55 µM (active)

## O=S(=O)(Nc1cc(O)nc(SCc2ccc(Cl)cc2)n1)c1ccccc1
[2]
  AC50: 4.07 µM (active)

## Cc1sc2ncnc(N3CCC(C(=O)Nc4ccc(Cl)cc4Cl)CC3)c2c1C
Streptococcus
  EC50: 66 µM (active)
Streptokinase A
  EC50: 91.7 µM (active)
[1]
  EC50: 23.6 µM (active)

## O=C(CSc1nc(-c2ccc(Cl)cc2)nc(=O)[nH]1)Nc1cccc(Cl)c1
Streptokinase A
  EC50: 4.65 µM (active)

## N#Cc1cccc(NC(=O)N2CC3(CCN(C(=O)c4cc(C(F)(F)F)cc(C(F)(F)F)c4)CC3)C2)c1
Cytochrome P450 2D6
  AC50: 20 µM (inconclusive)
Cytochrome P450 3A4
  AC50: 31.6 µM (inconclusive)

## Cc1cc(NC(=O)c2cnccn2)no1
Streptococcus
  EC50: > 150 µM (not active)
Streptokinase A
  EC50: > 150 µM (not active)
[1]
  EC50: > 150 µM (not active)

## CCC(Nc1cc(OC)ccc1OC)=C1C(=O)NC(=O)NC1=O
Cytochrome P450 3A4
  AC50: 39.8 µM (inconclusive)
Cytochrome P450 2C19
  AC50: 31.6 µM (inconclusive)

## NC(=NNC(=O)c1sccc1OCc1ccc(Cl)cc1Cl)c1ccccn1
Streptokinase A
  EC50: 35.4 µM (active)

## Cc1nc(Nc2nc(-c3ccccc3)cc(=O)[nH]2)nc2ccccc12
Streptokinase A
  EC50: > 150 µM (not active)

## O=C(NCc1cc(F)cc2c1OCCO2)[C@H]1C[C@@H]1[C@H](NP(=O)(c1ccccc1)c1ccccc1)c1ccccc1
Cytochrome P450 3A4
  AC50: 3.98 µM (inconclusive)

## O=C1CC(=O)N(CCc2ccc(F)cc2)C(=O)N1
Cytochrome P450 2C9
  AC50: 25.1 µM (inconclusive)
Cytochrome P450 3A4
  AC50: 31.6 µM (inconclusive)
Cytochrome P450 2C19
  AC50: 31.6 µM (inconclusive)

## Nc1ccc(OCCc2ccccc2)cc1
[3]
  IC50: 31.2 µM (active)

## Cc1ccc(-c2nc3nc(O)cc(NC(=O)c4cccs4)n3n2)cc1
Streptococcus
  EC50: > 150 µM (not active)
Streptokinase A
  EC50: > 150 µM (not active)
[1]
  EC50: 15.4 µM (active)

## COc1ccc(CNc2ncc(-c3ccc(Br)cc3)n2C)cc1OC
[3]
  IC50: 55.6 µM (active)

## CC(C)c1ccc(C(=O)NC(=S)Nc2ccc3[nH]c(=O)[nH]c3c2)cc1
Streptokinase A
  EC50: > 150 µM (not active)

## Cc1ccc(NC(=S)NC(=O)c2ccc(F)cc2)cc1S(=O)(=O)Nc1cccc(Cl)c1
Streptococcus
  EC50: 54.2 µM (active)
Streptokinase A
  EC50: 11.5 µM (active)
[1]
  EC50: 1.48 µM (active)

## COc1ccc(C(=O)CSc2[nH]c(=O)cc(C(F)(F)F)c2C#N)cc1
Streptokinase A
  EC50: 8.62 µM (active)

## CCN1CCN(CC(=O)Nc2nc3ccccc3s2)CC1
[3]
  IC50: 55.7 µM (active)

## O=C(c1c(Cl)cccc1Cl)N1CCN(c2cccc3[nH]ccc23)CC1
[3]
  IC50: 50.4 µM (active)

## CCC(=O)NNc1ccc(Br)cc1
[2]
  AC50: 1.82 µM (active)

## Cc1ccc(/C(C#N)=C\c2ccc(N3CCOCC3)o2)cc1
[4]
  EC50: > 60 µM (inconclusive)
[3]
  IC50: 65.6 µM (active)
[5]
  EC50: 4.37 µM (active)

## CN(C)c1ncc2ncc(=O)n(Cc3cccs3)c2n1
Cytochrome P450 2C9
  AC50: 39.8 µM (inconclusive)
Cytochrome P450 2D6
  AC50: 12.6 µM (inconclusive)
Cytochrome P450 3A4
  AC50: 15.8 µM (inconclusive)

## CCOC(=O)c1c(-c2ccccc2)csc1NC(=O)c1nn(CC)cc1Br
[2]
  AC50: 0.506 µM (active)
[4]
  EC50: > 60 µM (not active)
[5]
  EC50: 2.06 µM (active)

## O=C(CN1CCN(S(=O)(=O)c2ccccc2F)CC1)N1CCc2ccccc2C1
[3]
  IC50: 47.1 µM (active)

## Cc1ccc2c(c1)N(CCC(=O)NCCN1CCOCC1)C(=O)CO2
Cytochrome P450 2C9
  AC50: 39.8 µM (inconclusive)
Cytochrome P450 3A4
  AC50: 25.1 µM (inconclusive)
Cytochrome P450 2C19
  AC50: 39.8 µM (inconclusive)

## CN(CC(=O)Nc1ccccc1Cl)C(=O)c1cccc(-n2cccc2)c1
[2]
  AC50: > 195 µM (inactive)

## C/C(=N\NC(=S)Nc1ccc(F)cc1)c1ccc2c(c1)OCCO2
[2]
  AC50: 1.02 µM (active)

## C/C(N=Nc1ccccc1O)=N\Nc1nc2ccccc2s1
[2]
  AC50: 3.71 µM (active)

## O=c1[nH]c2ccccc2/c(=N\S(=O)(=O)c2ccc(Cl)cc2)n1-c1ccccc1
Cytochrome P450 2C9
  AC50: 0.891 µM (inconclusive)
Cytochrome P450 1A2
  AC50: 8.91 µM (inconclusive)
Cytochrome P450 3A4
  AC50: 2.82 µM (inconclusive)
Cytochrome P450 2C19
  AC50: 25.1 µM (inconclusive)

## COCc1cc(C)nc(OCC(=O)N/N=C/c2ccc(O)cc2)c1C#N
[3]
  IC50: 83.2 µM (active)

## O=c1[nH]c(=S)[nH]c(-c2ccccc2)c1Cc1c(O)ccc2ccccc12 [CAMBINOL]
Cytochrome P450 2C9
  AC50: 7.94 µM (inconclusive)
Cytochrome P450 1A2
  AC50: 1 µM (inconclusive)
Cytochrome P450 3A4
  AC50: 0.631 µM (inconclusive)
Cytochrome P450 2C19
  AC50: 0.0794 µM (inconclusive)
